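Exposure lasted 48 hours, with cells grown in 96-well plates and compounds tested at five concentrations. GI50 marks 50% less growth. The concentration for full growth arrest is given as TGI.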
Experiments:
Assay in all cases: growth of human tumour cells (NCI), 48 h
[1] = test system: A549 NSCLC
[2] = test system: BT-549 breast
[3] = test system: HL-60(TB) leukemia
[4] = test system: LOX IMVI melanoma
[5] = test system: MCF7 breast
[6] = test system: MDA-MB-435
[7] = test system: MOLT-4 leukemia
[8] = test system: NCI-H23 lung
[9] = test system: OVCAR-5 ovarian
[10] = test system: PC-3 prostate

| Structure (SMILES) | GI50 [1] [nM] | TGI [1] [µM] | GI50 [2] [nM] | TGI [2] [µM] | GI50 [3] [nM] | TGI [3] [µM] | GI50 [4] [nM] | TGI [4] [µM] | GI50 [5] [nM] | TGI [5] [µM] | GI50 [6] [nM] | TGI [6] [µM] | GI50 [7] [nM] | TGI [7] [µM] | GI50 [8] [nM] | TGI [8] [µM] | GI50 [9] [µM] | TGI [9] [µM] | GI50 [10] [nM] | TGI [10] [µM] |
| --- | --- | --- | --- | --- | --- | --- | --- | --- | --- | --- | --- | --- | --- | --- | --- | --- | --- | --- | --- | --- |
| CCOc1ccc(C(C[N+](=O)[O-])Sc2ccccc2N)cc1 (configuration not stated) | 7820 | 23 | 2600 | 9.9 | 2270 | 6.59 | 1440 | 2.92 | 1710 | 6.04 | 2250 | 6.95 | 3730 | 16.9 | 8710 | 21.6 | 11.2 | 23.2 | 4020 | 17.3 |
| CCN(CC)c1ccc(-c2cc(-c3cc(OC)c(OC)c(OC)c3)nc(N3CCC(O)CC3)c2C#N)cc1 | 326 |  | 911 | 3.89 | 497 | 2.33 | 41.9 | 0.172 | 628 |  | 272 | 1.12 | 621 | 5.17 | 870 | 4.68 | 0.469 | > 21.8 | 713 | > 100 |
| CCN1C(=O)N(CC)C2C1NN=c1s/c(=C3\C(=O)N(C4CCCC4)c4ccccc43)c(=O)n12 (configuration not stated) | 1550 | > 100 | 2030 | 7.84 | 1760 | 4.94 | 1630 | > 100 | 382 | > 100 | 242 | 0.661 | 3420 | > 100 | 2490 | 13.5 | 3.75 | > 100 | 1150 | > 100 |
| COc1ccccc1[As]=[As]c1ccccc1OC (configuration not stated) | 97.3 | 0.289 | 58.2 | 0.182 | 49.2 | 0.262 | 38.4 | 0.136 | 21 | 0.0604 | 51.1 | 0.196 | 38.2 | 0.204 | 65.3 | 0.204 | 0.0627 | 0.181 | 61.9 | 0.195 |
| CNC(=O)c1c(F)cccc1Nc1nc(Nc2cc3c(cc2OC)CCN3C(=O)CN(C)C)nc2[nH]ccc12 | 1740 | 14.4 | 19800 | 48.2 | 364 | 18.2 | 2400 | 7.26 | 359 | 2.88 | 1400 | 3.51 | 3010 | > 24.7 | 13300 | 34 | 4.88 | 26.3 | 6250 | 39.9 |
| O=C(/C=C/c1ccccn1)c1ccc(OCc2nnc(-c3ccc(Cl)cc3)o2)cc1 | 2060 | 4.82 | 1920 | 3.46 | 2460 | 7.68 | 1570 | 3.01 | 378 | 1.68 | 1710 | 3.6 | 2910 | 6.68 | 2130 | 4.58 | 2.49 | 4.89 | 1870 | 3.9 |
| O=C1Nc2ccccc2/C1=C\c1nc(-c2ccccc2F)n2ccccc12 | 3460 | 10.3 | 3370 | 12.9 | 24900 | > 100 | 4150 | 15.6 | 2100 | 12.2 | 3950 | 16.1 | 28200 | > 100 | 4550 | 17.3 | 18 | 53.5 | 6810 | 26.9 |
| Cn1cc(C2=C(c3cn(CCCN)c4ccccc34)C(=O)NC2=O)c2ccccc21 | 5650 | 17.4 | 5070 | 11.5 | 5040 | 11.6 | 3400 | 7.49 | 3550 | 10.4 | 2660 | 6.62 | 6060 | 18.5 | 5170 | 14.2 | 9.52 | > 25 | 7630 | 24.6 |
| COS(C)(=O)=O |  | > 2 |  | > 2 |  | > 2 |  | > 2 |  | > 2 |  | > 2 |  | > 2 |  | > 2 |  | > 2 |  | > 2 |
| COc1ccc(C2C(C#N)=C(N)Oc3c2sc2c(Br)cccc32)cc1 (configuration not stated) | 4690 | 21 | 4760 | 25.3 | 1120 | 3.73 | 2030 | 12.8 | 467 | 12 | 373 | 2.54 | 1550 | 6.78 | 2640 | 14.2 | 8.95 | 26.5 | 2860 | 17.3 |
| Fc1ccc(-c2nn3ccccc3c2-c2ccncc2)cc1 | > 25000 | > 25 | > 25000 | > 25 | > 25000 | > 25 | > 25000 | > 25 | > 23100 | > 25 | > 25000 | > 25 | > 25000 | > 25 | > 25000 | > 25 | > 25 | > 25 | > 25000 | > 25 |
| O=C1Cc2cc(CCn3cncn3)c(Cl)cc2N1 | 16500 | > 100 | 8720 | > 100 | > 100000 | > 100 | > 100000 | > 100 | 4020 | > 100 | 3220 | > 100 | > 100000 | > 100 | > 100000 | > 100 | > 100 | > 100 | > 100000 | > 100 |
| CCC(=O)N1C/C(=C/c2ccc(Br)cc2)C(=O)/C(=C/c2ccc(Br)cc2)C1 | 745 | 10.8 | 653 | 1.39 | 1860 | 5.63 | < 33.3 | 0.248 | 271 | 1.56 | 524 | 1.46 | 1060 | 5.69 | 1310 | 3.46 | 1.32 | 3.22 | 632 | 2.29 |
| Cn1c(=O)c(Oc2ccc(F)cc2F)cc2cnc(N[C@@H]3CCOC3)nc21 | > 25000 | > 25 | > 25000 | > 25 | > 25000 | > 25 | > 25000 | > 25 | > 25000 | > 25 | > 25000 | > 25 | > 25000 | > 25 | > 25000 | > 25 | > 25 | > 25 | > 25000 | > 25 |
| COc1ccc2c(c1)CCc1cc(OC)ccc1/[N+]([O-])=[N+]\2[O-] |  | > 67.6 |  | 29.8 |  | 27.6 |  | 42.7 |  | 26.7 |  | 32.2 |  | 20.3 |  | 52.4 |  | 52.7 |  | 31.6 |
| Oc1ccc(C(O)(c2ccccc2)c2ccccc2)c2ccccc12 |  | 11.9 |  | 26.1 |  | > 100 |  | 2.62 |  | > 100 |  | 6.01 |  | > 100 |  | 11.8 |  | 5.96 |  | 14.2 |
| OC1CCCC2CCC[N-]C12.OC1CCCC2CCC[N-]C12.[O]=[V][OH] (configuration not stated) | 5230 | > 100 | 6300 | 52.8 | 2610 | 8.4 | 6090 | 33.6 | 2870 | 10.1 | 7440 | > 100 | 1230 | 10.6 | 7220 | 52.6 | 9.99 | > 100 | 2590 | 8.63 |
| O=C(Nc1ccccc1)OC1OC(COC(=O)c2ccccc2)C(OC(=O)c2ccccc2)C1OS(=O)(=O)c1ccc([N+](=O)[O-])cc1 (configuration not stated) |  | > 100 |  | > 100 |  | > 100 |  | > 100 |  | > 100 |  | > 100 |  | > 100 |  | > 100 |  | > 100 |  | > 100 |
| O=C(Nc1cc(Cl)ccc1O)c1cccc(Nc2ccnc(C(F)(F)F)c2)c1 | 2940 | 66 | 2180 | 12.6 | 935 | 4.03 | 2650 | 24.4 | 2000 | 17.9 | 2830 | 12.2 | 1540 | 4.73 | 771 | 7.74 | 13.9 | 38.5 | 2290 | 11.6 |
| O=C(Nc1cc(F)c(F)cc1C(=O)O)c1ccc(-n2ccnc2)nn1 | > 100000 | > 100 | 81900 | > 100 | 38900 | > 100 | > 100000 | > 100 | > 100000 | > 100 | > 100000 | > 100 | > 100000 | > 100 | > 100000 | > 100 | > 100 | > 100 | > 100000 | > 100 |
| Clc1cccc(CNc2c3ccccc3nc3ccccc23)c1 | 2070 | 6.01 | 2340 | 7.19 | 1900 | 4.35 | 1530 | 3.08 | 1620 | 3.53 | 1670 | 3.13 | 2510 | 10.7 | 1730 | 4.93 | 2.06 | 6.54 | 1640 | 4.65 |
| COc1ccc(C(=O)c2cc3c(N)c(C(=O)Nc4cccc(Br)c4C)sc3nc2C)cc1 | 132 | > 100 | 123 | > 100 | 28.2 | 0.0954 | 61.5 | > 100 | 39.6 | > 100 | 22.3 | 0.0585 | 109 | > 100 | 354 | > 100 | 0.187 | > 100 | 62.4 | > 100 |
| CCCc1nc(Cl)c(Cl)c(Cl)n1 |  | > 100 |  | 77.9 |  | 37.2 |  | 17.7 |  | > 78.6 |  | > 62 |  | 46.9 |  | > 100 |  | 97.9 |  | > 100 |
| Clc1ccc2c(c1)N(C1CCCN(Cc3ccccc3)C1)c1ccccc1S2 (configuration not stated) | 4940 | > 100 | 7390 | 77 | 4520 | 72.5 | 6000 | 35.8 | 3250 | > 100 | 1790 | 3.72 | 16600 | > 100 | 9330 | > 100 | 14.6 | > 100 | 4400 | > 100 |
| O=C(NCCOCCOCCOCCNC(=O)c1cc2c(o1)C(=O)c1ccccc1C2=O)NC12CC3CC(CC(C3)C1)C2 | 517 | 2.34 | 1500 | 3.25 | 2160 | 6.46 | 843 | 3.16 | 1160 | 3.22 | 388 | 1.36 | 2870 | 8.04 | 234 | 1.97 | 1.83 | 3.28 | 1950 | 13.4 |
| Oc1[nH]c2ccccc2c1/C=c1/ccc2c(c1)N=C(c1ccc(C(F)(F)F)cc1)N=2 | 4810 | 17.8 | 2040 | 9.25 | 2260 | 5.27 | 1820 | 5.37 | 2980 | 12.9 | 1170 | 5.69 | 1670 | 3.94 | 3390 | 15.7 | 10.1 | 22 | 1540 | 3.75 |
| COc1ccc2c(O)c(/C=C3\N=Nc4ncccc43)oc2c1C[C@@H]1CCNC[C@H]1F | 1310 | 3.93 |  | 2.53 | 314 | 1.14 | 318 | 0.972 | 118 | 1.09 | 1210 | 2.79 | 181 | 0.544 | 861 | 3.51 | 1.02 | 8.29 | 530 | 3.62 |

Reference: PubChem BioAssay (NCI)
